These results are taken from patent US4634783A, “Novel amidine compound” (Torii & Co. Ltd., priority 1983, dated 1987).

For experiment [1], the system named is Kallikrein. As to the kind of experiment: anti-kallikrein activity (hydrolysis of TAME). The class given is biochemical. The settings on record: for IC50: TAME hydrolysis, read-out: ID50 Kallikrein; for percentage inhibition Kallikrein: at 1×10^-5 M, figure in parentheses. How it is done:
(§1) The anti-trypsin, anti-plasmin, anti-kallikrein and anti-thrombin activities were determined according to the method of Muramatsu et al. [M. Muramatsu, T. Onishi, S. Makino, Y. Hayashi and S. Fujii, J. of Biochem., 58, 214 (1965)]. […] The compound No. corresponds to the compound number shown in Examples.

The target in experiment [2] is T1, Trypsin (Bos taurus, UniProt P00760).
T1 sequence (P00760 24-246): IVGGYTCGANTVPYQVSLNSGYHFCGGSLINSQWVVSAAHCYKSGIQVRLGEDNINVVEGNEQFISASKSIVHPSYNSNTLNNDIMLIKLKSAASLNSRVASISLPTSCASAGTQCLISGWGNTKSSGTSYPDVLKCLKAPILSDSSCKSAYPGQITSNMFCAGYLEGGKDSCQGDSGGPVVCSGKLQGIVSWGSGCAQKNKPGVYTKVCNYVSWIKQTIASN
The experiment is described as follows: anti-trypsin activity (hydrolysis of TAME). The class given is biochemical. The settings on record: read-out: ID50 Trypsin. The method, then:
as §1

For experiment [3], the target named is Thrombin (Homo sapiens, UniProt P00734). The experiment is described as follows: biochemical. The settings on record: for IC50: read-out: ID50 Thrombin; for inhibition at 10 µM: at 1×10^-5 M, figure in parentheses, read-out: percentage inhibition Thrombin.
The target in experiment [4] is T2, C1r (Homo sapiens, UniProt P00736).
T2 sequence (P00736 464-705 limits assumed): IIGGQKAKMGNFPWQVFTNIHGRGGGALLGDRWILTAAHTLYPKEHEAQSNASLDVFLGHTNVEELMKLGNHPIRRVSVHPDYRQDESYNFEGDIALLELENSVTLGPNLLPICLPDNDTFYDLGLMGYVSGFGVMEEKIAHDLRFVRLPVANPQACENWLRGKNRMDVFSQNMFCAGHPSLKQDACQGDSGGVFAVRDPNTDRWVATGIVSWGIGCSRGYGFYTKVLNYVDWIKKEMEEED
T2 sequence (P00736 18-463 limits assumed): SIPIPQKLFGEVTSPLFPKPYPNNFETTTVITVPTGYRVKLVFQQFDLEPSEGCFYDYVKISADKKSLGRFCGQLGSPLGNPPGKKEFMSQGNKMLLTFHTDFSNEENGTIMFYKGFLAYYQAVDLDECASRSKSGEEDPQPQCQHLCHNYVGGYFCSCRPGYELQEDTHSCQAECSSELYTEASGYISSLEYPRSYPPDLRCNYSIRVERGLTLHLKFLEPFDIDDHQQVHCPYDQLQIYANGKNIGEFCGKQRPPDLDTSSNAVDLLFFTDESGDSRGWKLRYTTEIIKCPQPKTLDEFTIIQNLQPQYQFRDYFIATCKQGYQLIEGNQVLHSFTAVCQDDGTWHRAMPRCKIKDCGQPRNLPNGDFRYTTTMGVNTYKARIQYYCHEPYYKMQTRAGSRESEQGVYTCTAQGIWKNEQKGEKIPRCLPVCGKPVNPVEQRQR
As to the kind of experiment: anti-C1 esterase (C1r) activity (hydrolysis of AAME). The class given is biochemical. The settings on record: for IC50: AAME hydrolysis, read-out: ID50 C1r; for inhibition at 10 µM: at 1×10^-5 M, figure in parentheses, read-out: percent inhibition C1r. How it is done:
(§2) The anti-C1 esterase (C1r, C1s) activity was determined according to the method of Okamura et al. [K. Okamura, M. Muramatsu and B. Fujii, Biochem. Biophys. Acta, 295, 252-257 (1973)]. The inhibition of complement mediated hemolysis was determined according to the method of Baker et al. [B. R. Baker and E. H. Erickson, J. Med. Chem., 12, 408-414 (1969)]. The figures in Table 2 have the following meanings:
C1r: Molar concentration of the test compound which inhibits 50% of the ability of C1r to hydrolyse AAME (acetylarginin methyl ester) (ID50).

The test system of experiment [5] is complement mediated hemolysis. As to the kind of experiment: inhibition of complement mediated hemolysis. The class given is cell-based. How it is done: The complement mediated hemolysis is widely used as a means to determine the titration of complement. The principle of this method is based on the fact that hemolysis is caused by the activation of complement, when the latter is added to a complex (immune complex) of erythrocytes and the antibody thereof. The degree of hemolysis varies in proportion to the amount of complement added. Therefore, when a known amount of complement admixed with a C1 esterase inhibitor is used, the hemolysis must be suppressed in proportion to the inhibitory activity.
as §2
Inhibition of complement mediated hemolysis (%): The inhibitory activity is shown in terms of percent inhibition of the compound at varied concentrations: […]

Experiment [6] has as its target T3, C1s (Homo sapiens, UniProt P09871).
T3 sequence (P09871 438-688 limits assumed): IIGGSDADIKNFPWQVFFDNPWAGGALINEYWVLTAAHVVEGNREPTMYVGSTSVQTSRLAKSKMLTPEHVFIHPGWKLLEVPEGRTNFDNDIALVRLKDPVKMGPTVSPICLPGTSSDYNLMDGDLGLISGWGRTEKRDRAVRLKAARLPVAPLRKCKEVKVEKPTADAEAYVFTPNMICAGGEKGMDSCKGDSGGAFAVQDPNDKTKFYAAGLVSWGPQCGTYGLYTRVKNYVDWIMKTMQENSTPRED
T3 sequence (P09871 16-437 limits assumed): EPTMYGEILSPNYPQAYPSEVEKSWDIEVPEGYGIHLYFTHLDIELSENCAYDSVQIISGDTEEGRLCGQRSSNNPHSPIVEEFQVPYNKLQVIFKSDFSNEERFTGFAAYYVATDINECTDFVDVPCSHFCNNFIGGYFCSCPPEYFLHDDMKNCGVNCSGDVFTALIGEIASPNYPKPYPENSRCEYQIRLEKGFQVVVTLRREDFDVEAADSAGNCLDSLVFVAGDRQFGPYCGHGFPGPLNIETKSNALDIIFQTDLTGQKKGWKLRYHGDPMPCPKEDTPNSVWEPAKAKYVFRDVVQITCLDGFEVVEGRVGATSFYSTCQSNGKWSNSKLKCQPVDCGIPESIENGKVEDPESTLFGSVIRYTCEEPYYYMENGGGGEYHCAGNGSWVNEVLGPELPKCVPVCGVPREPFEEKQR
The experiment is described as follows: anti-C1 esterase (C1s) activity (hydrolysis of ATEE). The class given is biochemical. The settings on record: for IC50: ATEE hydrolysis, read-out: ID50 C1s; for inhibition at 10 µM: at 1×10^-5 M, figure in parentheses, read-out: percent inhibition C1s. The method, then:
as §2
C1s: Molar concentration of the test compound which inhibits 50% of the ability of C1s to hydrolyse ATEE (acetyltyrosin ethyl ester) (ID50).

The target of experiment [7] is Plasmin (Homo sapiens, UniProt P00747). The experiment is described as follows: anti-plasmin activity (hydrolysis of TAME). The class given is biochemical. The settings on record: for IC50: TAME hydrolysis, read-out: ID50 Plasmin; for inhibition at 10 µM: at 1×10^-5 M, figure in parentheses, read-out: percentage inhibition Plasmin. How it is done:
as §1

Like-named read-outs stand apart in the source and are kept apart here. Where only a bound is given, the exact number is not on record here.

Sequence of Plasmin (P00747 581-810 limits assumed, species assumed): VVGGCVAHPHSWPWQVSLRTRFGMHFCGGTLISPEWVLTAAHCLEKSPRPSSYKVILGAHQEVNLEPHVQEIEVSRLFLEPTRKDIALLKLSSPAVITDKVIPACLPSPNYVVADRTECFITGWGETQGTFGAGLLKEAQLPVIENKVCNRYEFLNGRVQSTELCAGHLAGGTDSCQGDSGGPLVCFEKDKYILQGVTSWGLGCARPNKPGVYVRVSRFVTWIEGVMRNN
Sequence of Plasmin (P00747 97-580 limits assumed, species assumed): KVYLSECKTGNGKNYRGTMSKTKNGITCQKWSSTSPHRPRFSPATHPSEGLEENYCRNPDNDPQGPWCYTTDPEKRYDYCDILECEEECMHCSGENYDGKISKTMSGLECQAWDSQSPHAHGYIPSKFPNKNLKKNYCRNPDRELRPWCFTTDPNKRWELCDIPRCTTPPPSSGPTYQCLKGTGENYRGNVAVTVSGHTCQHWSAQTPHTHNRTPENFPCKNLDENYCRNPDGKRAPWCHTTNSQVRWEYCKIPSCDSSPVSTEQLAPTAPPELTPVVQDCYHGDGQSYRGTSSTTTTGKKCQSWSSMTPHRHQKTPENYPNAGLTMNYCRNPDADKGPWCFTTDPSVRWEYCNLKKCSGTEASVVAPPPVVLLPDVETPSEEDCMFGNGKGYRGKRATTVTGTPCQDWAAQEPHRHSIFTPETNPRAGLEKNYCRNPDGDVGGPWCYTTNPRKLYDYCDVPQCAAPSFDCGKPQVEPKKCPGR

As for `N=C(N)Nc1ccc(CCc2ccc(C(=O)Oc3ccc4cc(C(=N)N)ccc4c3)o2)cc1` [compound 2, 6-amidino-2-naphthyl 5-(p-guanidinophenylethyl)-furan-2-carboxylate], the IC50 in experiment [1] was determined as 300 nM; in experiment [2] it was 200 nM; in experiment [3] (TAME hydrolysis) it was 500 nM; in experiment [4], 200 nM; in experiment [6], 400 nM; in experiment [7], 400 nM. Moreover, the “Inhibition of complement mediated hemolysis” value is 100% in experiment [5] (1 × 10^-4), 100% in experiment [5] (1 × 10^-5), 97% in experiment [5] (1 × 10^-6) and 89% in experiment [5] (1 × 10^-7).

On to `N=C(N)c1ccc2cc(OC(=O)c3ccco3)ccc2c1` [compound 3], for which, in experiment [1], the “percentage inhibition Kallikrein” value is “NE (the percentage inhibition is less than 10%)”. The IC50 in experiment [2] amounted to 400 nM; in experiment [3] (TAME hydrolysis) it was 400 nM; in experiment [4], 500 nM; in experiment [6], 4000 nM; in experiment [7] it was 1000 nM. Also, the “Inhibition of complement mediated hemolysis” value in experiment [5] (1 × 10^-4), in experiment [5] (1 × 10^-5), in experiment [5] (1 × 10^-6) and in experiment [5] (1 × 10^-7) was 100% throughout.

For `N=C(N)c1ccc2cc(OC(=O)c3ccoc3)ccc2c1` [compound 4], the “percentage inhibition Kallikrein” value in experiment [1] worked out at 43%. The IC50 in experiment [2] was found to be 2000 nM; in experiment [3] (TAME hydrolysis), 700 nM; in experiment [4], 600 nM; in experiment [6] it was 300 nM; in experiment [7], 1000 nM. Also, the “Inhibition of complement mediated hemolysis” value in experiment [5] (1 × 10^-4) is recorded as 100%; in experiment [5] (1 × 10^-5), 65%; in experiment [5] (1 × 10^-6), 30%; in experiment [5] (1 × 10^-7), “NE (the percentage inhibition is less than 10%)”.

Take `N=C(N)c1ccc2cc(OC(=O)c3ccc(CO)o3)ccc2c1` [compound 8]: the IC50 in experiment [1] was 4000 nM; in experiment [2], 400 nM; in experiment [3] (TAME hydrolysis), 600 nM; in experiment [6] it was 4000 nM; in experiment [7], 2000 nM. Also, the “Inhibition of complement mediated hemolysis” value in experiment [5] (1 × 10^-4) is given as 100%; in experiment [5] (1 × 10^-5), 100%; in experiment [5] (1 × 10^-6), 97%; in experiment [5] (1 × 10^-7) it was 92%.

As to `COc1ccc2[nH]c(C(=O)Oc3ccc4cc(C(=N)N)ccc4c3)cc2c1` [compound 33], the IC50 in experiment [1] was 10000 nM; in experiment [2] it was 200 nM; in experiment [4], 2000 nM; in experiment [6] it was 2000 nM; in experiment [7] it was 2000 nM. The inhibition – broadly, the percentage by which the read-out fell short of the control – at 10 µM in experiment [3] turned out to be 40%.

Turning to `COc1ccc2c(c1)c(CC(=O)Oc1ccc3cc(C(=N)N)ccc3c1)c(C)n2C(=O)c1ccc(Cl)cc1` [compound 35], the IC50 in experiment [1] came to 10000 nM; in experiment [2], 1 nM; in experiment [3] (TAME hydrolysis), 90 nM; in experiment [4], 400 nM; in experiment [6], 800 nM; in experiment [7], 100 nM.

For `N=C(N)c1ccc2cc(OC(=O)C=Cc3c[nH]c4ccccc34)ccc2c1` [compound 38], in experiment [1], the “percentage inhibition Kallikrein” value turned out to be 17%. Besides, the IC50 in experiment [2] turned out to be 9000 nM; in experiment [6], 600 nM; in experiment [7], 800 nM. Also, the values for the inhibition at 10 µM in experiment [3] and in experiment [4] were 11% and 42%, respectively.

`N=C(N)c1ccc2cc(OC(=O)c3ccc(Cn4ccnc4)cc3)ccc2c1` [compound 42]: the IC50 in experiment [1] came out at 5000 nM; in experiment [2], 2000 nM; in experiment [7], 2000 nM. Also, in experiment [3], the inhibition at 10 µM worked out at 13%.

In the case of `N=C(N)c1ccc2cc(OC(=O)c3ccc4[nH]cnc4c3)ccc2c1` [compound 43], in experiment [1], the “percentage inhibition Kallikrein” value came to 41%. The IC50 came to 100 nM in experiment [2], 300 nM in experiment [4] and 500 nM in experiment [6]. Besides, the figures for the inhibition at 10 µM in experiment [3] and in experiment [7] were 46% and 31%, respectively.

For `N=C(N)c1ccc2cc(OC(=O)C=Cc3cccnc3)ccc2c1` [compound 50], the “percentage inhibition Kallikrein” value in experiment [1] is listed as “NE (the percentage inhibition is less than 10%)”. The IC50 is 6000 nM in experiment [2], 5000 nM in experiment [4] and 4000 nM in experiment [7]. For the same molecule, the inhibition at 10 µM in experiment [3] turned out to be 14%; in experiment [6], 18%.

Turning to `N=C(N)c1ccc2cc(OC(=O)c3ccc4ccccc4n3)ccc2c1` [compound 52], the inhibition at 10 µM is 29% in experiment [4] and less than 10% in experiment [6]. In addition, the “Inhibition of complement mediated hemolysis” value in experiment [5] (1 × 10^-4) is 100%; in experiment [5] (1 × 10^-5), 97%; in experiment [5] (1 × 10^-6), 99%; in experiment [5] (1 × 10^-7), 97%.

In the case of `N=C(N)c1ccc2cc(OC(=O)C3CCN(C(=O)OCc4ccccc4)CC3)ccc2c1` [compound 55], the IC50 in experiment [1] is 2000 nM; in experiment [2] it was 60 nM; in experiment [4], 3000 nM; in experiment [6] it was 400 nM; in experiment [7] it was 3000 nM. In experiment [3], the inhibition at 10 µM was 41%.

With `CN1c2ccccc2Sc2ccc(CC(=O)Oc3ccc4cc(C(=N)N)ccc4c3)cc21` [compound 61], the “percentage inhibition Kallikrein” value in experiment [1] was determined as 17%. The IC50 is 3000 nM in experiment [2], 3000 nM in experiment [3] and 2000 nM in experiment [4]. Further, the inhibition at 10 µM was found to be 16% in experiment [6] and 31% in experiment [7].

Take `N=C(N)c1ccc2cc(OC(=O)C3CCNCC3)ccc2c1` [compound 64]: the inhibition at 10 µM in experiment [4] turned out to be 45%. Moreover, in experiment [6], the IC50 came out at 7000 nM.
